≈ marks a conversion by molar mass, not a printed value.
Key:
Trypanosoma brucei = assay: Inhibition of Trypanosoma brucei LeuRS assessed as residual activity at 100 uM incubated for 5 mins in presence of [14C]leucine by scintillation counting method relative to control
[1] = Inhibition of Trypanosoma brucei LeuRS presence of [14C]leucine by scintillation counting method
[2] = Inhibition of Trypanosoma brucei LeuRS preincubated for 20 mins followed by ATP addition measured after 15 mins in presence of [14C]leucine by scintillation counting method
[3] = Selectivity index, ratio of IC50 for human cytoplasmic LeuRS to IC50 for Trypanosoma brucei LeuRS
[4] = Inhibition of human LeuRS after 10 mins in presence of [3H]leucine by scintillation counting method
[5] = system: Mycobacterium tuberculosis; assay: Antitubercular activity against Mycobacterium tuberculosis H37Rv by time-kill assay; format: functional
Leucine--tRNA ligase = Leucine--tRNA ligase (Escherichia coli (strain K12), UniProt P07813); assay: Binding affinity to Escherichia coli LeuRS
Chain of Leucine--tRNA ligase (P07813 whole entry): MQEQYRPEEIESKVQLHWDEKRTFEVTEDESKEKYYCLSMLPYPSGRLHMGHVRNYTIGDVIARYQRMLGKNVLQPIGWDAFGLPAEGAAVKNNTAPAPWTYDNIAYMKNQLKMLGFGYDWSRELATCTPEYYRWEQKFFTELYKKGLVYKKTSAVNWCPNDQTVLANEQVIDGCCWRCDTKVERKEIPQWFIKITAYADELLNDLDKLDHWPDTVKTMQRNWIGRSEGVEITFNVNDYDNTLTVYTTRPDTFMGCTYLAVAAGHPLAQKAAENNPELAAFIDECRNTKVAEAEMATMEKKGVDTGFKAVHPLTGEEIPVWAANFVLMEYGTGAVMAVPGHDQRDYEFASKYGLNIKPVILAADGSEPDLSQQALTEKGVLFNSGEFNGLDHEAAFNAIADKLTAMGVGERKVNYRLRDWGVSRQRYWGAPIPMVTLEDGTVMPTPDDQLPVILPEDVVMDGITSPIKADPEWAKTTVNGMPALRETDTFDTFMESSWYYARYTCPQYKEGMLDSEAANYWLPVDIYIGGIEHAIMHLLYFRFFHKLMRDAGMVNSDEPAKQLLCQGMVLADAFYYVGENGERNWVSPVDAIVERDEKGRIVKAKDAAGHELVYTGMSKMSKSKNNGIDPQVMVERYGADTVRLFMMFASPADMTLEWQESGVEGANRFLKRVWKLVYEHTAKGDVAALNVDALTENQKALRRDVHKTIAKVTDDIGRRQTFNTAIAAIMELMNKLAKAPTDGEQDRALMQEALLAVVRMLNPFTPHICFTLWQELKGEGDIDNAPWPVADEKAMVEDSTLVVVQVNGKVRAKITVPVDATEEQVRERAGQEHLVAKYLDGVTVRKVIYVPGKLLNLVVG

Streptococcus pneumoniae = assay: Antibacterial activity against Streptococcus pneumoniae assessed as the reduction in bacterial growth incubated for 24 hrs by dilution antimicrobial susceptibility test; format: functional

| Compound | IC50 [2] [µM] | Ratio IC50 [3] | IC50 [4] [µM] | also measured |
| --- | --- | --- | --- | --- |
| O=c1nc(Nc2cc(Cl)ccc2O)cn[nH]1 | – | – | – | Activity (Trypanosoma brucei): 18%; IC50 [1]: 7.2 µM |
| O=C(COc1ccc(Br)cc1Cl)NC(=S)Nc1cccc(S(=O)(=O)NC(=O)[C@H](Cc2ccccc2)NC(=O)OCc2ccccc2)c1 | 13.7 | – | – | – |
| CC(C)C[C@H](NC(=O)OCc1ccccc1)C(=O)NS(=O)(=O)c1cccc(NC(=S)NC(=O)COc2ccc(Br)cc2Cl)c1 | 16.7 | – | – | – |
| COc1ccc(C(=O)NC(=S)Nc2cccc(S(=O)(=O)NC(=O)[C@@H](N)CC(C)C)c2)cc1 | 5.6 | 4.5 to 7.3 | 33.9 | – |
| NS(=O)(=O)c1ccc(NC(=S)NC(=O)COc2ccc(Br)cc2Cl)cc1 | 174 | – | – | – |
| NCC1OB(O)c2ccccc21 (stereo not drawn) | – | – | – | MIC [5]: 1.8 µg/mL (≈ 11 µM) |
| Cc1cc(-c2cccc(S(=O)(=O)CC(=O)[C@@H](N)CC(C)C)c2)ncn1 | – | – | – | Kd (Leucine--tRNA ligase): 0.0014 µM |
| OB1OCc2ccccc21 [BENZOXABOROLE] | – | – | – | MIC [5]: 7.5 µg/mL (≈ 56 µM) |
| OB1OCc2ccc(C(O)c3ccccc3)cc21 (stereo not drawn) | – | – | – | MIC (Streptococcus pneumoniae): 5 µg/mL (≈ 20.8 µM) |
| Cc1n[nH]c(=O)nc1Nc1cc(Cl)ccc1O | – | – | – | Activity (Trypanosoma brucei): 2.3%; IC50 [1]: 7.6 µM |
| CC(C)C[C@H](N)C(=O)NS(=O)(=O)c1cccc(NC(=S)NC(=O)c2ccccc2)c1 | 7.6 | 4.5 to 7.3 | 55.5 | – |
| COc1cccc(C(=O)NC(=S)Nc2cccc(S(=O)(=O)NC(=O)[C@@H](N)CC(C)C)c2)c1 | 6.7 | 4.5 to 7.3 | 40 | – |
| CC(C)C[C@H](N)C(=O)NS(=O)(=O)c1cccc(NC(=S)NC(=O)COc2ccc(Br)cc2Cl)c1 | 1.1 | 4.5 to 7.3 | 4.9 | – |

From ChEMBL document CHEMBL4373645, “Recent development of leucyl-tRNA synthetase inhibitors as antimicrobial agents” (Medchemcomm, 2019)
